Data: patent US12351574B2, “Selective ligands for modulation of GIRK channels” (Northeastern University, priority 2018, dated 2025)

Key:
[1] = target: T1, GIRK1/2(V-T) (UniProt P48542+P48549, V99T); test: TEVC in Xenopus oocytes, single mutant GIRK1/2(V-T); type: cell-based, human GIRK1, mouse GIRK2; details: GIRK1/2(V-T) single mutant
T1 construct: expressed in transfected cells; host or cells: Xenopus laevis oocytes (cRNA injection)
T1 sequence (P48549 1-501): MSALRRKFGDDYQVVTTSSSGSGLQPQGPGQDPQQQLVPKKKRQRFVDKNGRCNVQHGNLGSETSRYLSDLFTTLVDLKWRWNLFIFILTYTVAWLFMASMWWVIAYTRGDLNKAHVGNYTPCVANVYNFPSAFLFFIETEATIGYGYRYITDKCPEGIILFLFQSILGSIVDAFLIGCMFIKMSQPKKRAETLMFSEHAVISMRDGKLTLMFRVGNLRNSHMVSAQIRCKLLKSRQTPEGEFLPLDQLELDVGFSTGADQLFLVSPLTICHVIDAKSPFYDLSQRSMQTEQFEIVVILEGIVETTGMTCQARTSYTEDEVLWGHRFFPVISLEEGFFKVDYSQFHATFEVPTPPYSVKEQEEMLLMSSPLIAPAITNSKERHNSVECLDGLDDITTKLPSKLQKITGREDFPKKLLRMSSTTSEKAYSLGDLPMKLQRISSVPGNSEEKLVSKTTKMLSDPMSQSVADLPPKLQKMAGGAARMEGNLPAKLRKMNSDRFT
T1 sequence (P48542 1-425 V99T): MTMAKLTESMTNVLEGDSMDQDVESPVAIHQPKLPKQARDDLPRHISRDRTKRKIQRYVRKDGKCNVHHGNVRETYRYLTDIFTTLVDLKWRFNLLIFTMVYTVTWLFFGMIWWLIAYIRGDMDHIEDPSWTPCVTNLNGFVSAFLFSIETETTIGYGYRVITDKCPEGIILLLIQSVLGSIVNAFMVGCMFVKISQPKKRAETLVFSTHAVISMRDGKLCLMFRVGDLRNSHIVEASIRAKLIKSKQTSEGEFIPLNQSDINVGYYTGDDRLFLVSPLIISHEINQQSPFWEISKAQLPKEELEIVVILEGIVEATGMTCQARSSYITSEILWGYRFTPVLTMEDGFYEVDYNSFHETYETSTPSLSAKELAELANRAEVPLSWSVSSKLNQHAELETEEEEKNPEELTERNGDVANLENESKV
From the text: Molecular biology: For Xenopus oocyte expression, human GIRK1 and human GIRK4 cDNAs were subcloned into pGEMHE. For mammalian expression, human GIRK1 and human GIRK4 cDNAs were subcloned into pcDNA3 and pcDNA3.1/V5-His B, respectively (Invitrogen). Mouse GIRK2 cDNA was subcloned in the dual-function vector, pXoom. Point mutations were introduced using a standard Pfu-based mutagenesis technique according to the QuikChange protocol (Agilent). Mutations were verified by sequencing.
Electrophysiology of oocytes: Whole-oocyte currents were measured by conventional two-electrode voltage clamp (TEVC) with a GeneClamp 500 amplifier (Axon Instruments). Agarose cushion microelectrodes were filled with 1.5% (w/v) agarose in 3 M KCl and were used with resistances between 0.1 and 1.5 megaohms. […] Barium-sensitive basal currents from both groups, 1) Vehicle, 2) single concentration at 10 μM and 3) multiple concentrations of ML297 or GAT compounds in the presence of HK solution, were assessed at −80 mV using TEVC. Barium-sensitive currents were normalized to average basal current in the vehicle solutions. The HK solution contained the following: 96 mM KCl, 1 mM NaCl, 1 mM MgCl2, 5 mM KOH/HEPES, pH 7.4. The barium solution consisted of HK+10 mM BaCl2. Five to ten oocytes from the same batch (same frog) were recorded for each group, and the experiments were repeated in at least four batches. Data acquisition and analysis were carried out using pClamp9 (Molecular Devices) and OriginPro (Microcal) software.
To test these computational predictions, the inventors mutated each or both of the two M1 key wild-type GIRK4 subunit residues to the corresponding GIRK2 residues (GIRK4-V92I, GIRK4-T94V, GIRK4-V92I/T94V or GIRK4-dm) and vice-versa the GIRK2 residues to the corresponding GIRK4 ones (GIRK2-I97V, GIRK2-V99T, GIRK2-I97V/V99T or GIRK2-dm) (FIG. 35). […]

[2] = target: human ERG (hERG) channels (Homo sapiens, UniProt Q12809); details: 5 µM
Experimental: In FIG. 52A, human ERG (hERG) channels were expressed in Xenopus oocytes and studied by two-electrode voltage clamp (TEVC). In FIG. 52A, hERG tail-current magnitude was assessed at −50 mV, following a 4 second test step to 20 mV from a holding voltage of −100 mV. The test pulse was repeated every 10-seconds. […] Two-electrode voltage-clamp and data analysis: Whole-oocyte currents were measured by two-electrode voltage clamp (TEVC) with GeneClamp 500 (Molecular Devices), or TEC-03X (NPI) amplifiers. […] The oocytes were bathed in ND96 recording solution comprising, in mM: KCl 2, NaCl 96, MgCl2 1 and HEPES 5, buffered to pH 7.4 with KOH. Where indicated, GIRK channel currents were assessed in a high K^+ recording solution comprising, in mM: KCl 96, NaCl 2, MgCl2 1 and HEPES 5, buffered to pH 7.4 with KOH. Currents were digitized using a USB interface (National Instruments) and recorded using WinWCP software (University of Strathclyde). To study GIRK channels, oocytes were held at 0 mV, and currents were assessed by 100 ms ramps from −80 to +80 mV that were repeated every second. The effect of the reagents was determined at −80 mV, then the channels were blocked by 5 mM BaCl2. Block was expressed as the percent-current block normalized to the maximum current. Between 8-12 oocytes from different Xenopus frogs were studied per experiment.

Sequence of human ERG (hERG) channels (Q12809 whole entry): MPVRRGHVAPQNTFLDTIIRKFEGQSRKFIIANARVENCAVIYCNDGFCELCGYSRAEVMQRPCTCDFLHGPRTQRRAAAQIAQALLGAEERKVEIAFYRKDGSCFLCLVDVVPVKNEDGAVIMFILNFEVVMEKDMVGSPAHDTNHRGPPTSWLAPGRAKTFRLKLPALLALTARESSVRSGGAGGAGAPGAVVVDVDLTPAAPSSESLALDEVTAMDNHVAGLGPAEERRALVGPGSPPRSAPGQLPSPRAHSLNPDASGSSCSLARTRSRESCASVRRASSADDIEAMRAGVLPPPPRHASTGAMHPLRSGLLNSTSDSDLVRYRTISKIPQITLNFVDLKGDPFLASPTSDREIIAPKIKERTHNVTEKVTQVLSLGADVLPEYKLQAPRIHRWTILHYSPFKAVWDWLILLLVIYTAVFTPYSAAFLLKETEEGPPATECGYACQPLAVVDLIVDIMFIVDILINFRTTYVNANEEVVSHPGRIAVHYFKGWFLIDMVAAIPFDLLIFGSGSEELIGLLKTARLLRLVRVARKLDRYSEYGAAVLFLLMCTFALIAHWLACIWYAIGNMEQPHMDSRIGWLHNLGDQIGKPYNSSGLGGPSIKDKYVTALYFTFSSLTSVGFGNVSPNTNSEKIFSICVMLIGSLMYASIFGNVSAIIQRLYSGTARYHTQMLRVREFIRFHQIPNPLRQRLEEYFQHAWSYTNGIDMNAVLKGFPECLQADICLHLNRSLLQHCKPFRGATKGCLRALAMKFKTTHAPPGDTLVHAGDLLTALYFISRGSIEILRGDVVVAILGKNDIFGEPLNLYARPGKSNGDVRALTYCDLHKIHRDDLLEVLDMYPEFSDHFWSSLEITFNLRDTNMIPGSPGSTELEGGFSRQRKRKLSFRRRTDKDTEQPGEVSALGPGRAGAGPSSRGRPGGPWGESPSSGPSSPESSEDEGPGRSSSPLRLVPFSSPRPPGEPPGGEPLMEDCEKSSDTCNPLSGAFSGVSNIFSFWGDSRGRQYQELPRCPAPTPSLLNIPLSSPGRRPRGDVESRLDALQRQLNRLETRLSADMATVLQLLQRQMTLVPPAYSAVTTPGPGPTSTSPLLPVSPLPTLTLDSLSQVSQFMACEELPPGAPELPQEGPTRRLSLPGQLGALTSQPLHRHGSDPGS

| EC50 [1] [µM] | EMAX [1] | Emax ([1]; read-out: EMAX, % of the control GIRK1/2) [%] | Structure (SMILES) | inhibition of the hERG tail current [2] [%] |
| --- | --- | --- | --- | --- |
| 0.53 ± 0.07 | 1.92±0.03 | 65 | Cc1cc(NC(=O)Nc2ccc(Br)s2)n(-c2ccccc2)n1 [GAT1508, 1-(5-bromothiophen-2-yl)-3-(3-methyl-1-phenyl-1H-pyrazol-5-yl)urea] |  |
|  |  |  | Cc1cc(NC(=O)Nc2ccc(F)c(F)c2)n(-c2ccccc2)n1 [ML297, reference compound] | ~40 |
